≈ marks a conversion by molar mass, not a printed value. Structures can show the parent of a compound that is named as a salt.
Tests used:
[1] = Solubility in HCl 0.01N (pH 1.0) and phosphate saline buffer (pH 7.4), LC-MSMS; details: thermodynamic from solid
Procedure: (§1) For each compound, three solutions were prepared in HCl 0.01N (pH 1.0) at 500 μM and three solutions in phosphate saline buffer (pH 7.4) at 500 μM. The solutions were prepared by dissolving each compound in the adequate solvent in opaque tubes and stirred 24 hours at room temperature. After 24 hours, for each solution, an aliquot was centrifuged 10 minutes at 3 500 rpm in order to separate the insoluble fraction from the soluble fraction. The supernatant was taken and diluted in H2O (1/20) before injection in LC-MSMS. After HPLC separation, analytes are detected and quantified by mass spectrometry. A standard curve is performed for each test substance. The solubility of each test substance was determined by calculating the concentration of each supernatant according to the standard curve.

physchem = details: pH 7.4, aqueous buffer, thermodynamic from solid
Procedure: as §1

Cathepsin B = Cathepsin B (Homo sapiens, UniProt P07858); assay: Cathepsin-B mediated drug release test; type: in vitro ADME; details: 10 units/mL activated Cathepsin B, 25 mM sodium acetate pH 5.5, 37° C., 0-120 min, LC-MS of released free drug (FIG. 1)
Procedure: Drug release of (Z)-3-(2-(5-bromo-1H-indol-3-yl)-2-cyanovinyl)-4-methoxybenzonitrile from Example 27 was performed using cathepsin B enzyme.
Cathepsin B (50 units/mL) was preincubated in activation buffer containing 25 mM sodium acetate (pH 5.5), 30 mM DTT and 15 mM EDTA for 15 min at 37° C. and then added as a 20% (v/v) addition to initiate each reaction.
Final in vitro cathepsin B reaction mixtures will contain 25 mM sodium acetate (pH 5.5), 10 units/mL activated Cathepsin B, 30 mM DTT and 15 mM EDTA, and 0.5 μg/mL of Example 27 in a 2.5% (v/v) incubation sample background.
Reactions will be terminated by addition of organic solvent and the supernatant analyzed by LC-MS to quantify released free drug.

[2] = HCl 0.01N, pH 1, simulated gastric fluid
[3] = phosphate saline buffer, pH 7.4, aqueous buffer

COc1ccc(C#N)cc1/C=C(\C#N)c1cn(C(=O)CCCP(=O)([O-])O)c2ccc(Br)cc12.[Na+] [Example 8, sodium (Z)-hydrogen4-(5-bromo-3-(1-cyano-2-(5-cyano-2-methoxyphenyl)vinyl)-1H-indol-1-yl)-4 oxobutylphosphonate]
solubility at 24 h [1, 2]: < 5 µM | solubility at 24 h [1, 3]: 71 µM

COc1ccc(C#N)cc1/C=C(\C#N)c1cn(C(=O)OCc2ccc(NC(=O)[C@H](CCCNC(N)=O)NC(=O)[C@@H](NC(=O)CCOCCOCCOCCOCCNC(=O)CCN3C(=O)C=CC3=O)C(C)C)cc2)c2ccc(Br)cc12 [Example 22, [4-[[(2S)-2-[[(2S)-2-[3-[2-[3-(2,5-dioxopyrrol-1-yl)propanoylamino]ethoxy](peg4)propanoylamino]-3-methyl-butanoyl]amino]-5-ureido-pentanoyl]amino]phenyl]methyl 5-bromo-3-[(Z)-1-cyano-2-(5-cyano-2-methoxy-phenyl)vinyl]indole-1-carboxylate]
solubility (physchem): 2 µM (≈ 2.36 µg/mL)

COc1ccc(C#N)cc1/C=C(\C#N)c1cn(C(=O)CCCCP(=O)([O-])[O-])c2ccc(Br)cc12.[Na+].[Na+] [Example 14, disodium (Z)-5-(5-bromo-3-(1-cyano-2-(5-cyano-2-methoxyphenyl)vinyl)-1H-indol-1-yl)-5-oxopentylphosphonate]
solubility at 24 h [1, 3]: 180 µM

COc1ccc2c(/C(C#N)=C/c3cc(C#N)ccc3OC)cn(C(=O)CCCCP(=O)([O-])O)c2c1.[Na+] [Example 11, sodium (Z)-hydrogen5-(3-(1-cyano-2-(5-cyano-2-methoxyphenyl)vinyl)-6-methoxy-1H-indol-1-yl)-5-oxopentylphosphonate]
solubility at 24 h [1, 2]: 10 µM | solubility at 24 h [1, 3]: 476 µM

COc1ccc(C#N)cc1/C=C(\C#N)c1cn(C(=O)CCCCP(=O)(O)O)c2ccc(Br)cc12 [Example 1, (Z)-5-(5-bromo-3-(1-cyano-2-(5-cyano-2-methoxyphenyl)vinyl)-1H-indol-1-yl)-5-oxopentylphosphonic acid]
solubility at 24 h [1, 3]: 497 µM (≈ 270 µg/mL)

COc1ccc(C#N)cc1/C=C(\C#N)c1cn(C(=O)CCP(=O)(O)O)c2ccc(Br)cc12 [Example 2, (Z)-3-(5-bromo-3-(1-cyano-2-(5-cyano-2-methoxyphenyl)vinyl)-1H-indol-1-yl)-3-oxopropylphosphonic acid]
solubility at 24 h [1, 3]: 12 µM (≈ 6.17 µg/mL)

COc1ccc(C#N)cc1/C=C(\C#N)c1cn(C(=O)CCCP(=O)(O)O)c2ccc(Br)cc12 [Example 16, (S)-2,6-diaminohexanoic acid compound with (Z)-4-(5-bromo-3-(1-cyano-2-(5-cyano-2-methoxyphenyl)vinyl)-1H-indol-1-yl)-4-oxobutylphosphonic acid (2:1)]
solubility at 24 h [1, 2]: < 10 µM | solubility at 24 h [1, 3]: 35 µM (≈ 18.5 µg/mL)

COc1ccc2c(/C(C#N)=C/c3cc(C#N)ccc3OC)cn(C(=O)CCCCP(=O)(O)O)c2c1 [Example 4, (Z)-5-(3-(1-cyano-2-(5-cyano-2-methoxyphenyl)vinyl)-6-methoxy-1H-indol-1-yl)-5-oxopentylphosphonic acid]
solubility at 24 h [1, 3]: 33 µM (≈ 16.3 µg/mL)

COc1ccc(C#N)cc1/C=C(\C#N)c1cn(C(=O)CCCCCCP(=O)(O)O)c2ccc(Br)cc12 [Example 3, (Z)-7-(5-bromo-3-(1-cyano-2-(5-cyano-2-methoxyphenyl)vinyl)-1H-indol-1-yl)-7-oxoheptylphosphonic acid]
solubility at 24 h [1, 3]: 294 µM (≈ 168 µg/mL)

COc1ccc(C#N)cc1/C=C(\C#N)c1cn(C(=O)CCCCP(=O)([O-])O)c2ccc(Br)cc12.[Na+] [Example 6, Sodium (Z)-hydrogen5-(5-bromo-3-(1-cyano-2-(5-cyano-2-methoxyphenyl)vinyl)-1H-indol-1-yl)-5-oxopentylphosphonate]
solubility at 24 h [1, 2]: 34 µM | solubility at 24 h [1, 3]: 206 µM

COc1ccc(C#N)cc1/C=C(\C#N)c1c[nH]c2ccc(Br)cc12 [Example 38 of WO 2014/086964, (Z)-3-(2-(5-bromo-1H-indol-3-yl)-2-cyanovinyl)-4-methoxybenzonitrile, reference compound]
solubility at 24 h [1, 2]: < 5 µM | solubility at 24 h [1, 3]: < 5 µM

COc1ccc(C#N)cc1/C=C(\C#N)c1cn(C(=O)CCCP(=O)([O-])[O-])c2ccc(Br)cc12.[Na+].[Na+] [Example 13, disodium (Z)-4-(5-bromo-3-(1-cyano-2-(5-cyano-2-methoxyphenyl)vinyl)-1H-indol-1-yl)-4-oxobutylphosphonate]
solubility at 24 h [1, 2]: 19 µM | solubility at 24 h [1, 3]: 45 µM

COc1ccc(C#N)cc1/C=C(\C#N)c1cn(C(=O)OCc2ccc(NC(=O)[C@H](CCCNC(N)=O)NC(=O)[C@@H](NC(=O)C(CS(=O)(=O)O)NC(=O)OC(C)(C)C)C(C)C)cc2)c2ccc(Br)cc12 (some centres unmarked) [Example 24]
solubility (physchem): 201 µM (≈ 208 µg/mL)

COc1ccc(C#N)cc1/C=C(\C#N)c1cn(C(=O)OCc2ccc(NC(=O)[C@H](CCCNC(N)=O)NC(=O)[C@@H](N)C(C)C)cc2)c2ccc(Br)cc12 [Example 21, hydrochloride]
solubility (physchem): 471 µM

COc1ccc(C#N)cc1/C=C(\C#N)c1cn(C(=O)OCc2ccc(NC(=O)[C@H](CCCNC(N)=O)NC(=O)[C@@H](NC(=O)[C@H](CS(=O)(=O)O)NC(=O)CCOCCOCCOCCOCCNC(=O)CCN3C(=O)C=CC3=O)C(C)C)cc2)c2ccc(Br)cc12 [Example 26]
solubility (physchem): 175 µM (≈ 233 µg/mL)

COc1ccc(C#N)cc1/C=C(\C#N)c1cn(C(=O)OCc2ccc(O[C@@H]3O[C@H](C(=O)O)[C@@H](O)[C@H](O)[C@H]3O)cc2)c2ccc(Br)cc12 [Example 19, (2S,3S,4S,5R,6S)-6-[4-[[5-bromo-3-[(Z)-1-cyano-2-(5-cyano-2-methoxy-phenyl)vinyl]indole-1-carbonyl]oxymethyl]phenoxy]-3,4,5-trihydroxy-tetrahydropyran-2-carboxylic acid]
solubility at 24 h [1, 3]: 452 µM (≈ 318 µg/mL)

COc1ccc(C#N)cc1/C=C(\C#N)c1cn(C(=O)CCCCCCP(=O)([O-])O)c2ccc(Br)cc12.[Na+] [Example 10, sodium (Z)-hydrogen7-(5-bromo-3-(1-cyano-2-(5-cyano-2-methoxyphenyl)vinyl)-1H-indol-1-yl)-7-oxoheptylphosphonate]
solubility at 24 h [1, 2]: 93 µM | solubility at 24 h [1, 3]: 141 µM

COc1ccc2c(/C(C#N)=C/c3cc(C#N)ccc3OC)cn(C(=O)CCCCCCP(=O)([O-])O)c2c1.[Na+] [Example 12, sodium (Z)-hydrogen7-(3-(1-cyano-2-(5-cyano-2-methoxyphenyl)vinyl)-6-methoxy-1H-indol-1-yl)-7-oxoheptylphosphonate]
solubility at 24 h [1, 2]: 109 µM | solubility at 24 h [1, 3]: 465 µM

COc1ccc(C#N)cc1/C=C(\C#N)c1cn(C(=O)OCc2ccc(NC(=O)[C@H](CCCNC(N)=O)NC(=O)[C@@H](NC(=O)[C@H](CS(=O)(=O)O)NC(=O)CCOCCOCCOCCOCCNC(=O)CCN3C(=O)CC(SC[C@H](NC(C)=O)C(=O)O)C3=O)C(C)C)cc2)c2ccc(Br)cc12 (stereo partly drawn) [Example 27, N-acetyl-S-(1-((R)-2-(((S)-1-(((S)-1-((4-(((5-bromo-3-((Z)-1-cyano-2-(5-cyano-2-methoxyphenyl)vinyl)-1H-indole-1-carbonyl)oxy)methyl)phenyl)amino)-1-oxo-5-ureidopentan-2-yl)amino)-3-methyl-1-oxobutan-2-yl)carbamoyl)-4,20-dioxo-1-sulfo-7,10,13,16-tetraoxa-3,19-diazadocosan-22-yl)-2,5-dioxopyrrolidin-3-yl)-L-cysteine]
Drug release of (Z)-3-(2-(5-bromo-1H-indol-3-yl)-2-cyanovinyl)-4-methoxybenzonitrile (Cathepsin B): efficient drug release

COc1ccc(C#N)cc1/C=C(\C#N)c1cn(C(=O)CCP(=O)([O-])O)c2ccc(Br)cc12.[Na+] [Example 7, sodium (Z)-hydrogen3-(5-bromo-3-(1-cyano-2-(5-cyano-2-methoxyphenyl)vinyl)-1H-indol-1-yl)-3-oxopropylphosphonate]
solubility at 24 h [1, 2]: < 5 µM | solubility at 24 h [1, 3]: 103 µM

Reference: US20250382317A1 (EVEXTA BIO, priority 2022, published 2025)
